Source: ChEMBL document CHEMBL1201862, “PubChem BioAssay data set” (2004)
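Assay format: 96-well plates, 48-hour exposure. GI50 = concentration required for 50% inhibition of growth.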 Activity calls are given as the source filed them. Rule as the data show it: active = GI50 up to about 1.1 µM and inactive = higher.

Columns and labels:
Assay in all cases: inhibition of tumour cell growth, NCI panel, 48 h
T47D = system: T47D
NCI-H522 = system: NCI-H522
SNB-19 = system: SNB-19
CCRF-CEM = system: CCRF-CEM
MDA-MB-435 = system: MDA-MB-435
SF-295 = system: SF-295
OVCAR-4 = system: OVCAR-4
OVCAR-8 = system: OVCAR-8
TK-10 = system: TK-10
NCI-H23 = system: NCI-H23
SK-MEL-5 = system: SK-MEL-5
CAKI-1 = system: CAKI-1
SK-MEL-28 = system: SK-MEL-28
DU-145 = system: DU-145
SW-620 = system: SW-620
UO-31 = system: UO-31
COLO 205 = system: COLO 205
MDA-N = system: MDA-N
SF-268 = system: SF-268
NCI-H226 = system: NCI-H226
NCI/ADR-RES = system: NCI/ADR-RES
HCT-116 = system: HCT-116
UACC-257 = system: UACC-257
NCI-H460 = system: NCI-H460
786-0 = system: 786-0
OVCAR-5 = system: OVCAR-5
M14 = system: M14
LOX IMVI = system: LOX IMVI
RPMI-8226 = system: RPMI-8226
UACC-62 = system: UACC-62
RXF 393 = system: RXF 393
Hs-578T = system: Hs-578T
SK-MEL-2 = system: SK-MEL-2
A549 = system: A549
ACHN = system: ACHN
KM12 = system: KM12
HL-60 = system: HL-60
HCT-15 = system: HCT-15
SR = system: SR
PC-3 = system: PC-3
HT-29 = system: HT-29
Malme-3M = system: Malme-3M
MOLT-4 = system: MOLT-4
K562 = system: K562
SNB-75 = system: SNB-75
SF-539 = system: SF-539
EKVX = system: EKVX
SN12C = system: SN12C
IGROV-1 = system: IGROV-1
MDA-MB-231 = system: MDA-MB-231
HOP-62 = system: HOP-62
U-251 = system: U-251
HCC 2998 = system: HCC 2998
SK-OV-3 = system: SK-OV-3
HOP-92 = system: HOP-92
MCF7 = system: MCF7

Q: With `CC1CCC/C1=C(/I)C(=O)c1ccccc1` (centres undefined) as the compound, how does the GI50 (T47D) read?
A: > 100 µM (inactive)

Q: And the GI50 (NCI-H522)?
A: 41.7 µM (inactive)

Q: What about the GI50 (SNB-19) of the same compound?
A: > 100 µM (inactive)

Q: What about the GI50 (CCRF-CEM) of the same compound?
A: 30.4 µM (inactive)

Q: What about the GI50 (MDA-MB-435) of the same compound?
A: 28.9 µM (inactive)

Q: What about the GI50 (SF-295) of the same compound?
A: 27 µM (inactive)

Q: And the GI50 (OVCAR-4)?
A: 85.7 µM (inactive)

Q: What about the GI50 (OVCAR-8) of the same compound?
A: > 100 µM (inactive)

Q: And the GI50 (TK-10)?
A: > 100 µM (inactive)

Q: And the GI50 (NCI-H23)?
A: 74.5 µM (inactive)

Q: And the GI50 (SK-MEL-5)?
A: 26.2 µM (inactive)

Q: And the GI50 (CAKI-1)?
A: 2.97 µM (inactive)

Q: And the GI50 (SK-MEL-28)?
A: > 100 µM (inactive)

Q: What about the GI50 (DU-145) of the same compound?
A: > 100 µM (inactive)

Q: What about the GI50 (SW-620) of the same compound?
A: 53.1 µM (inactive)

Q: And the GI50 (UO-31)?
A: > 100 µM (inactive)

Q: What about the GI50 (COLO 205) of the same compound?
A: > 100 µM (inactive)

Q: What about the GI50 (MDA-N) of the same compound?
A: 36.6 µM (inactive)

Q: And the GI50 (SF-268)?
A: > 100 µM (inactive)

Q: And the GI50 (NCI-H226)?
A: 60.7 µM (inactive)

Q: And the GI50 (NCI/ADR-RES)?
A: 76.7 µM (inactive)

Q: And the GI50 (HCT-116)?
A: 36.6 µM (inactive)

Q: And the GI50 (UACC-257)?
A: 89.9 µM (inactive)

Q: What about the GI50 (NCI-H460) of the same compound?
A: > 100 µM (inactive)

Q: What about the GI50 (786-0) of the same compound?
A: > 100 µM (inactive)

Q: And the GI50 (OVCAR-5)?
A: 18.5 µM (inactive)

Q: And the GI50 (M14)?
A: 59.3 µM (inactive)

Q: What about the GI50 (LOX IMVI) of the same compound?
A: 9.16 µM (inactive)

Q: And the GI50 (RPMI-8226)?
A: 55.3 µM (inactive)

Q: What about the GI50 (UACC-62) of the same compound?
A: 86.7 µM (inactive)

Q: What about the GI50 (RXF 393) of the same compound?
A: > 100 µM (inactive)

Q: What about the GI50 (Hs-578T) of the same compound?
A: > 100 µM (inactive)

Q: What about the GI50 (SK-MEL-2) of the same compound?
A: > 100 µM (inactive)

Q: What about the GI50 (A549) of the same compound?
A: 98.2 µM (inactive)

Q: And the GI50 (ACHN)?
A: > 100 µM (inactive)

Q: What about the GI50 (KM12) of the same compound?
A: 25.4 µM (inactive)

Q: What about the GI50 (HL-60) of the same compound?
A: 39.5 µM (inactive)

Q: What about the GI50 (HCT-15) of the same compound?
A: > 100 µM

Q: What about the GI50 (SR) of the same compound?
A: 30.8 µM (inactive)

Q: And the GI50 (PC-3)?
A: > 100 µM (inactive)

Q: And the GI50 (HT-29)?
A: 48 µM (inactive)

Q: And the GI50 (Malme-3M)?
A: 64.4 µM (inactive)

Q: And the GI50 (MOLT-4)?
A: 19.2 µM (inactive)

Q: What about the GI50 (K562) of the same compound?
A: 34.4 µM (inactive)

Q: What about the GI50 (SNB-75) of the same compound?
A: 16.1 µM (inactive)

Q: What about the GI50 (SF-539) of the same compound?
A: > 100 µM (inactive)

Q: What about the GI50 (EKVX) of the same compound?
A: > 100 µM (inactive)

Q: And the GI50 (SN12C)?
A: > 100 µM (inactive)

Q: And the GI50 (IGROV-1)?
A: > 100 µM (inactive)

Q: What about the GI50 (MDA-MB-231) of the same compound?
A: 40.2 µM (inactive)

Q: And the GI50 (HOP-62)?
A: > 100 µM (inactive)

Q: And the GI50 (U-251)?
A: > 100 µM (inactive)

Q: And the GI50 (HCC 2998)?
A: > 100 µM (inactive)

Q: What about the GI50 (SK-OV-3) of the same compound?
A: > 100 µM (inactive)

Q: What does the source list for `C=C1C(=O)O[C@H]2C1C[C@@H](O)[C@@]1(C)OC1CC[C@@]1(C)O[C@H]21` (some centres undefined)?
A: GI50 (NCI-H522): 5.62 µM (inactive); GI50 (SNB-19): > 100 µM (inactive); GI50 (CCRF-CEM): 5.15 µM (inactive); GI50 (MDA-MB-435): 21 µM (inactive); GI50 (SF-295): 99.1 µM (inactive); GI50 (OVCAR-4): 13.9 µM (inactive); GI50 (OVCAR-8): 34.7 µM (inactive); GI50 (TK-10): 17.8 µM (inactive); GI50 (NCI-H23): 17 µM (inactive); GI50 (SK-MEL-5): 16.1 µM (inactive); GI50 (CAKI-1): 16.7 µM (inactive); GI50 (SK-MEL-28): 21.1 µM (inactive); GI50 (DU-145): 36.6 µM (inactive); GI50 (SW-620): 13.3 µM (inactive); GI50 (UO-31): 17 µM (inactive); GI50 (COLO 205): 11.6 µM (inactive); GI50 (SF-268): 48.1 µM (inactive); GI50 (HOP-92): 17.2 µM (inactive); GI50 (NCI/ADR-RES): 20.7 µM (inactive); GI50 (HCT-116): 17.7 µM (inactive); GI50 (UACC-257): 19.5 µM (inactive); GI50 (NCI-H460): 57.9 µM (inactive); GI50 (786-0): 22.1 µM (inactive); GI50 (OVCAR-5): 28.7 µM (inactive); GI50 (M14): 16.3 µM (inactive); GI50 (LOX IMVI): 13.2 µM (inactive); GI50 (RPMI-8226): 8.95 µM (inactive); GI50 (UACC-62): 15.3 µM (inactive); GI50 (MCF7): 14.8 µM (inactive); GI50 (RXF 393): 17.9 µM (inactive); GI50 (Hs-578T): 28.6 µM (inactive); GI50 (SK-MEL-2): 17.6 µM (inactive); GI50 (A549): > 100 µM (inactive); GI50 (ACHN): 13.7 µM (inactive); GI50 (KM12): 20.6 µM (inactive); GI50 (HCT-15): 14.9 µM; GI50 (SR): 14.1 µM (inactive); GI50 (PC-3): 27.2 µM (inactive); GI50 (HT-29): 32.8 µM (inactive); GI50 (Malme-3M): 11.7 µM (inactive); GI50 (MOLT-4): 5.94 µM (inactive); GI50 (K562): 9.33 µM (inactive); GI50 (SNB-75): 74.1 µM (inactive); GI50 (EKVX): 15.8 µM (inactive); GI50 (SN12C): 20.1 µM (inactive); GI50 (IGROV-1): > 10 µM (inactive); GI50 (MDA-MB-231): 19.1 µM (inactive); GI50 (U-251): > 100 µM (inactive); GI50 (HCC 2998): 15.2 µM (inactive); GI50 (SK-OV-3): > 100 µM (inactive)
